Measurements published in US8741934B2, “Inhibitors of ion channels” (Pfizer Limited, priority 2007, dated 2014).

Each compound was assayed against T1, hSCN3A sodium channels (Homo sapiens, UniProt Q9NY46) (assay: hSCN3A electrophysiology, whole-cell patch-clamp or PatchXpress 7000, estimated IC-50 (Table B)). Settings: estimated IC-50; hSCN3A cells, whole-cell patch-clamp or PatchXpress 7000; read-out: SCN3A EIC-50.
T1 construct: expressed in transfected cells
T1 sequence (Q9NY46 whole entry): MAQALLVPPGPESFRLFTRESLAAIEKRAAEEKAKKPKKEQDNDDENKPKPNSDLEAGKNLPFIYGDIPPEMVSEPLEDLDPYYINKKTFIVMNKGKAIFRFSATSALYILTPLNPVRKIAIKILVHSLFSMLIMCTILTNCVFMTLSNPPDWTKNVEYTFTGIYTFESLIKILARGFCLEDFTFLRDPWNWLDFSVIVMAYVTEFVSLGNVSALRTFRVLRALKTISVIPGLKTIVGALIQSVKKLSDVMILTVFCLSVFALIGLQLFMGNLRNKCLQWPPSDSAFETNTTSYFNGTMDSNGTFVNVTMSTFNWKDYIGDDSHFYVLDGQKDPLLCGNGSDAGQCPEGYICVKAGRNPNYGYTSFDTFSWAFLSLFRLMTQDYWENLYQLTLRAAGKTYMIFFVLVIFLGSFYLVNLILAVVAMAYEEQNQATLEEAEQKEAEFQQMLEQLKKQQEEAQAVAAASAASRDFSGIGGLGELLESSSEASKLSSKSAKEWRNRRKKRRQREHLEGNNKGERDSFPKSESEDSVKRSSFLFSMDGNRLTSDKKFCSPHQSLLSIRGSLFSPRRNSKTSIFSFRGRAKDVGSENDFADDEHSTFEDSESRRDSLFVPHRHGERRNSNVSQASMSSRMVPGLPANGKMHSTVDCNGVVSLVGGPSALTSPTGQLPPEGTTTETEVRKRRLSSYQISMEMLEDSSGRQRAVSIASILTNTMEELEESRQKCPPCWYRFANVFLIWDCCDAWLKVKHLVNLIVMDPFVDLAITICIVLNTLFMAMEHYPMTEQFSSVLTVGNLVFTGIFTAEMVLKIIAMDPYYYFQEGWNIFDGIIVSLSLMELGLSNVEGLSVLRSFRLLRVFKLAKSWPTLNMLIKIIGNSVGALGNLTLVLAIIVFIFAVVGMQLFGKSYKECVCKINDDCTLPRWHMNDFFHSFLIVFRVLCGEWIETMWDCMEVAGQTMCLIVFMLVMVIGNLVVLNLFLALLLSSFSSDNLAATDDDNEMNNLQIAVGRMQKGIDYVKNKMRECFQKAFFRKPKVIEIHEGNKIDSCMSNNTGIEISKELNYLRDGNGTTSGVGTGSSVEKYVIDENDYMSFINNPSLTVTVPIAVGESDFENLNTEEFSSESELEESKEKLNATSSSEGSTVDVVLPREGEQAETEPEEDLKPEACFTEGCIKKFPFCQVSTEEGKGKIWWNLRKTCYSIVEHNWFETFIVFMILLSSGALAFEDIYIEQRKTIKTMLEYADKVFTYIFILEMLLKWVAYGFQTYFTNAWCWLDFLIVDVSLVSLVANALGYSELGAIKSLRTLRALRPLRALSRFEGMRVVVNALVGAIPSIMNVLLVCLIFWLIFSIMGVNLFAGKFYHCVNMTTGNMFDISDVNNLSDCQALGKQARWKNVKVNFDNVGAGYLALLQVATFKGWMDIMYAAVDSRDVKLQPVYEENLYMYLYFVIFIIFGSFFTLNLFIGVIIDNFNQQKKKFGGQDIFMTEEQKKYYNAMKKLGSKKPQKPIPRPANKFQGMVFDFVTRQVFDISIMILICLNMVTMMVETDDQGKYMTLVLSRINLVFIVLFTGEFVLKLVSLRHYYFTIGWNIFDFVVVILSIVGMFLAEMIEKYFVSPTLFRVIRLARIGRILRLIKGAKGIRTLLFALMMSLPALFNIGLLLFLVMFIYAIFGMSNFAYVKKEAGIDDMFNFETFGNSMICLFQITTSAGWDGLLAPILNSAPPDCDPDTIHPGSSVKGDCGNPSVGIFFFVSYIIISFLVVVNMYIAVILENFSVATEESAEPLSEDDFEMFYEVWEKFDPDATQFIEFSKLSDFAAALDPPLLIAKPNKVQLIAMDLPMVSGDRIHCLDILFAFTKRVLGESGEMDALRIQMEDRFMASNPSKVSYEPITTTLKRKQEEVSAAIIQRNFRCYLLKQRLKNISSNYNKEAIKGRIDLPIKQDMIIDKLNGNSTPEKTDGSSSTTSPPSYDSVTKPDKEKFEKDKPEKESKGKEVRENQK
Format: cell-based
Method in brief: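 Stably transfected HEK cells, whole-cell voltage clamp at 22-24° C, manual or PatchXpress 7000. Cells held at empirically determined inactivation V1/2; current evoked by 20 msec step to 0 mV after 8 sec prepulse to V1/2.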
`O=C(NCc1ccc(Cl)c(Cl)c1)c1ccc(S(=O)(=O)Nc2ncc(Cl)s2)c(F)c1` [Example 311, 4-{[(5-Chloro-1,3-thiazol-2-yl)amino]sulfonyl}-N-(3,4-dichlorobenzyl)-3-fluorobenzamide] was tested, and the IC50 was 60 nM. With `Cn1cnc(NS(=O)(=O)c2ccc(C(=O)NCc3ccc(C(F)(F)F)cc3)cc2)n1` [Example 9, 4-{[(1-Methyl-1H-1,2,4-triazol-3-yl)amino]sulfonyl}-N-[4-(trifluoromethyl)benzyl]benzamide] the IC50 was over 10000 nM. Compound “4-[(1,3-Thiazol-2-ylamino)sulfonyl]-N-(4-isopropyloxybenzyl)benzamide [Example 69]” has an IC50 of 770 nM. `Cc1nsc(NS(=O)(=O)c2ccc(C(=O)NCc3ccc(C(F)(F)F)cc3)cc2)n1` [Example 6, 4-{[(3-Methyl-1,2,4-thiadiazol-5-yl)amino]sulfonyl}-N-[4-(trifluoromethyl)benzyl]benzamide] was tested, and the IC50 was 1110 nM. Work on `O=C(NCc1cccc(OC(F)(F)F)c1)c1ccc(S(=O)(=O)Nc2nccs2)cc1F` [Example 335, 2-Fluoro-4-[(1,3-thiazol-2-ylamino)sulfonyl]-N-[3-(trifluoromethoxy)benzyl]benzamide] yielded an IC50 of 200 nM. `O=C(c1ccc(S(=O)(=O)Nc2nccs2)cc1)N1CCCC(Cc2cccc(F)c2)C1` (stereo not shown) [Example 47, 4-{[3-(3-Fluorobenzyl)piperidin-1-yl]carbonyl}-N-1,3-thiazol-2-ylbenzenesulfonamide] was tested, and the IC50 was 920 nM. `O=C(NCc1cccc(F)c1)c1ccc(S(=O)(=O)Nc2nccs2)cc1` [Example 90, N-(3-fluorobenzyl)-4-[(1,3-thiazol-2-ylamino)sulfonyl]benzamide] was tested, and the IC50 was 1660 nM. Compound `CC(NC(=O)c1ccc(S(=O)(=O)Nc2ncns2)cc1)c1ccc(C(F)(F)F)cc1` (stereo not shown) [Example 322, 4-[(1,2,4-Thiadiazol-5-ylamino)sulfonyl]-N-{1-[4-(trifluoromethyl)phenyl]ethyl}benzamide] has an IC50 of 340 nM. For `O=C(NCc1ccc(C(F)(F)F)c(F)c1)c1ccc(S(=O)(=O)Nc2ncc(Cl)s2)c(F)c1` [Example 310, 4-{[(5-Chloro-1,3-thiazol-2-yl)amino]sulfonyl}-3-fluoro-N-[3-fluoro-4-(trifluoromethyl)benzyl]benzamide], the IC50 was 50 nM. `CC(O)(CN(C(=O)c1ccc(S(=O)(=O)Nc2nccs2)cc1)C1CCCCC1)c1ccccc1` (stereo not shown) [Example 257, N-cyclohexyl-N-(2-hydroxy-2-phenylpropyl)-4-[(1,3-thiazol-2-yl-amino)sulfonyl]benzamide] showed an IC50 of over 1000 nM. Compound `O=C(c1ccc(S(=O)(=O)Nc2nccs2)cc1)N1CCC(c2ccccc2)C1` (stereo not shown) [Example 191, 4-[(3-Phenylpyrrolidin-1-yl)carbonyl]-N-1,3-thiazol-2-yl-benzenesulfonamide] has an IC50 of 2250 nM. `O=C(NCc1ccc(Cl)cc1Cl)c1ccc(S(=O)(=O)Nc2nccs2)cc1` [Example 413, N-(24-dichlorobenzyl)-4-[(1,3-thiazol-2-ylamino)sulfonyl] benzamide] gave an IC50 of 180 nM. For `Cc1noc(C)c1NS(=O)(=O)c1ccc(C(=O)NCc2ccc(C(F)(F)F)cc2)cc1` [Example 26, 4-{[(3,5-Dimethylisoxazol-4-yl)amino]sulfonyl}-N-[4-(trifluoromethyl)benzyl]benzamide], the IC50 was over 10000 nM. `O=C(NCC1(c2ccc(Cl)cc2)CC1)c1ccc(S(=O)(=O)Nc2ncns2)c(F)c1` [Example 382, N-{[1-(4-chlorophenyl)cyclopropyl]methyl}-3-fluoro-4-[(1,2,4-thiadiazol-5-ylamino)sulfonyl]benzamide] showed an IC50 of 140 nM. `COc1ccccc1C1CN(C(=O)c2ccc(S(=O)(=O)Nc3nccs3)cc2)CCO1` (stereo not shown) [Example 232, 4-{[2-(2-Methoxyphenyl)morpholin-4-yl]carbonyl}-N-1,3-thiazol-2-yl-benzenesulfonamide] gave an IC50 of 3420 nM. `O=C(NCc1ccc(Cl)cc1F)c1ccc(S(=O)(=O)Nc2nccs2)cc1` [Example 93, N-(4-chloro-2-fluorobenzyl)-4-[(1,3-thiazol-2-ylamino)sulfonyl]benzamide] showed an IC50 of 460 nM. Compound `O=C(NCc1ccc(F)c(OC(F)(F)F)c1)c1ccc(S(=O)(=O)Nc2ncc(Cl)s2)cc1F` [Example 358, 4-{[(5-Chloro-1,3-thiazol-2-yl)amino]sulfonyl}-2-fluoro-N-[4-fluoro-3-(trifluoromethoxy)benzyl]benzamide] has an IC50 of 370 nM. Work on `O=C(NCc1ccc(C(F)(F)F)c(Cl)c1)c1ccc(S(=O)(=O)Nc2ncns2)cc1Cl` [Example 374, 2-Chloro-N-[3-chloro-4-(trifluoromethyl)benzyl]-4-[(1,2,4-thiadiazol-5-ylamino)sulfonyl]benzamide] yielded an IC50 of 230 nM. `O=C(c1ccc(S(=O)(=O)Nc2nccs2)cc1)N1CCOC[C@H]1c1ccccc1` [Example 48, 4-{[(3R)-3-phenylmorpholin-4-yl]carbonyl}-N-1,3-thiazol-2-ylbenzenesulfonamide] showed an IC50 of over 1000 nM. For `Cc1nc(NS(=O)(=O)c2ccc(C(=O)NCc3ccc(C(F)(F)F)cc3)cc2)cs1` [Example 15, 4-{[(2-Methyl-1,3-thiazol-4-yl)amino]sulfonyl}-N-[4-(trifluoromethyl)benzyl]benzamide], the IC50 was 31000 nM. `O=C(NCc1ccc(C(F)(F)F)cc1)c1ccc(S(=O)(=O)Nc2ncc(Cl)s2)cc1` [Example 1, 4-{[(5-Chloro-1,3-thiazol-2-yl)amino]sulfonyl}-N-[4-(trifluoromethyl)benzyl]benzamide] showed an IC50 of 70 nM. Compound `O=C(NCc1ccc(F)cc1)c1ccc(S(=O)(=O)Nc2nccs2)cc1` [Example 92, N-(4-fluorobenzyl)-4-[(1,3-thiazol-2-ylamino)sulfonyl]benzamide] has an IC50 of 580 nM. For `O=C(c1ccc(S(=O)(=O)Nc2nccs2)cc1)N1CCO[C@@H]2Cc3ccccc3[C@@H]21` [Example 53, 4-[(4aS,9aR)-2,3,9,9a-tetrahydroindeno[2,1-b][1,4]oxazin-4(4aH)-ylcarbonyl]-N-1,3-thiazol-2-ylbenzenesulfonamide], the IC50 was 2860 nM. Compound `O=C(NCCc1ccccc1)c1ccc(S(=O)(=O)Nc2nccs2)cc1` [Example 163, N-(2-phenylethyl)-4-[(1,3-thiazol-2-ylamino)sulfonyl]benzamide] has an IC50 of 5050 nM. In the case of `O=C(NCc1ccc(-c2ccccc2)cc1)c1ccc(S(=O)(=O)Nc2nccs2)cc1` [Example 399, N-(biphenyl-4-ylmethyl)-4-[(1,3-thiazol-2-ylamino)sulfonyl] benzamide], the IC50 is reported as 30 nM. `O=C(NC1Cc2ccccc2C1)c1ccc(S(=O)(=O)Nc2nccs2)cc1` [Example 173, N-(2,3-dihydro-1H-inden-2-yl)-4-[(1,3-thiazol-2-ylamino)sulfonyl]benzamide] showed an IC50 of 2670 nM. Work on `O=C(NCc1ccc(Cl)c(Cl)c1)c1ccc(S(=O)(=O)Nc2nccs2)c(Cl)c1` [Example 291, 3-Chloro-N-(3,4-dichlorobenzyl)-4-[(1,3-thiazol-2-ylamino)sulfonyl]benzamide] yielded an IC50 of 710 nM. In the case of `O=C(NCc1cccc(C(F)(F)F)c1)c1ccc(S(=O)(=O)Nc2ncc(Cl)s2)c(Cl)c1` [Example 372, 3-Chloro-4-{[(5-chloro-1,3-thiazol-2-yl)amino]sulfonyl}-N-[3-(trifluoromethyl)benzyl] benzamide], the IC50 is reported as 2260 nM. In the case of `O=C(NCc1ccc(OC(F)(F)F)c(F)c1)c1ccc(S(=O)(=O)Nc2nccs2)c(Cl)c1` [Example 286, 3-Chloro-N-[3-fluoro-4-(trifluoromethoxy)benzyl]-4-[(1,3-thiazol-2-yl-amino)sulfonyl]benzamide], the IC50 is reported as 140 nM. For `O=C(NCc1cccc(C(F)(F)F)c1)c1ccc(S(=O)(=O)Nc2nccs2)cc1` [Example 398, 4-[(1,3-Thiazol-2-ylamino)sulfonyl]-N-[3-(trifluoromethyl)benzyl] benzamide], the IC50 was 260 nM. `O=C(NCc1cccs1)c1ccc(S(=O)(=O)Nc2nccs2)cc1` [Example 386, 4-[(1,3-Thiazol-2-ylamino)sulfonyl]-N-(2-thienylmethyl)benzamide] showed an IC50 of 3410 nM. `O=C(NCc1ccc(OC(F)(F)F)c(Cl)c1)c1ccc(S(=O)(=O)Nc2ncns2)cc1Cl` [Example 378, 2-Chloro-N-[3-chloro-4-(trifluoromethoxy)benzyl]-4-[(1,2,4-thiadiazol-5-ylamino)sulfonyl] benzamide] gave an IC50 of 180 nM. In the case of `O=C(NCc1ccc(F)c(C(F)(F)F)c1)c1ccc(S(=O)(=O)Nc2nccs2)cc1F` [Example 336, 2-Fluoro-N-[4-fluoro-3-(trifluoromethyl)benzyl]-4-[(1,3-thiazol-2-ylamino)sulfonyl] benzamide], the IC50 is reported as 240 nM. Compound `O=C(c1ccc(S(=O)(=O)Nc2nccs2)cc1)N1CCCC(Oc2ccccc2)C1` (stereo not shown) [Example 277, 4-[(3-Phenoxypiperidin-1-yl)carbonyl]-N-1,3-thiazol-2-yl-benzenesulfonamide] has an IC50 of 2190 nM. With `O=C(NCc1ccc(F)c(C(F)(F)F)c1)c1ccc(S(=O)(=O)Nc2ncc(Cl)s2)c(F)c1` [Example 316, 4-{[(5-Chloro-1,3-thiazol-2-yl)amino]sulfonyl}-3-fluoro-N-[4-fluoro-3-(trifluoromethyl)benzyl] benzamide] the IC50 was 140 nM. Work on `O=C(NCCc1cccc(C(F)(F)F)c1)c1ccc(S(=O)(=O)Nc2nccs2)cc1` [Example 74, 4-[(1,3-Thiazol-2-ylamino)sulfonyl]-N-{2-[3-(trifluoromethyl)phenyl]ethyl}benzamide] yielded an IC50 of 540 nM. In the case of `CN(Cc1ccc(F)cc1)C(=O)c1ccc(S(=O)(=O)Nc2ncc(Cl)s2)cc1` [Example 43, 4-{[(5-Chloro-1,3-thiazol-2-yl)amino]sulfonyl}-N-(4-fluorobenzyl)-N-methylbenzamide], the IC50 is reported as 4830 nM. Work on `O=C(NCc1ccc(F)cc1F)c1ccc(S(=O)(=O)Nc2nccs2)cc1` [Example 94, N-(2,4-difluorobenzyl)-4-[(1,3-thiazol-2-ylamino)sulfonyl]benzamide] yielded an IC50 of over 100 nM. Work on `COc1cccc(CNC(=O)c2ccc(S(=O)(=O)Nc3nccs3)cc2)c1` [Example 170, N-(3-methoxybenzyl)-4-[(1,3-thiazol-2-ylamino)sulfonyl]benzamide] yielded an IC50 of 3920 nM. In the case of `Cc1cc(CC(NC(=O)c2ccc(S(=O)(=O)Nc3nccs3)cc2)c2cccc(Cl)c2)on1` (stereo not shown) [Example 136, N-[1-(3-chlorophenyl)-2-(3-methylisoxazol-5-yl)ethyl]-4-[(1,3-thiazol-2-ylamino)sulfonyl]benzamide], the IC50 is reported as 4260 nM.
